The test system of this test is HepG2 cells. As to the kind of experiment: GdTex / LuTex cell association study in HepG2 cells. It counts as cell-based. Conditions: 50 μM, 4 hours. As to the method:
The absorption of GdTex and LuTex, using different sources of the respective texaphyrin, in HepG2 cells was determined, by comparing absorption for GdTex and LuTex in the cell line in medium alone, in medium containing ascorbic acid, and using GdTex and LuTex that had been premixed with ascorbate for a period of time before exposure to the cell line.
The HepG2 tumor cell line, a hepatocellular carcinoma, was obtained from the American Type Culture Collection (ATCC), Manassas, Va. (Catalog # HB-8065). The HepG2 cells were maintained in Eagle's Minimal Essential medium with Earl's BSS and 2 mM L-glutamine (EMEM) that is modified by ATCC to contain 1.0 mM sodium pyruvate, 0.1 mM nonessential amino acids, and 1.5 g/L sodium bicarbonate (ATCC, Cat. # 30-2003) and supplemented with 10% fetal bovine serum (FBS) FBS (Hyclone, Logan, Utah, Lot # AHF8559) and 100U penicillin/100 ug/ml streptomycin (Sigma, St. Louis, Mo.). Cells are fed 1 to 2 times weekly and passed at 3,000,000 cells per 75 cm tissue culture flask (Costar). Cells are passed using 0.25% trypsin, 0.02% EDTA solution (50/50 PBS/trypsin (Sigma)). Cells used were at the 96th passage at the time of use.
HepG2 Cells were plated at a density of 500,000 cells per dish in 100 mm tissue culture dishes containing 10 mL of RPMI media (Gibco, Rockville, Md.) supplemented with 10% fetal bovine serum (Lot# AJC9908), and 100 U/mL penicillin/100 ug/mL streptomycin (Lot # 50K2308, Sigma, St. Louis, Mo.). Cells were plated out 1 to 2 days prior to treating with motexafin gadolinium.
The day prior to treating the dishes with GdTex (9-19-00), an “aged” solution was prepared containing 50 μM GdTex, 100 μM ascorbate, and Catalase (at a concentration 1:1000 of the stock solution concentration provided by the vendor). This solution was incubated at 37° C. 5% CO2 for approximately 24 hours prior to addition to the appropriate test dishes.
On the day of treatment, test solutions were prepared as shown in the Table I below in pre-incubated medium. […]

The mark [1] stands for this setting: freshly prepared solutions made in the presence of ascorbate (100 μM).

Take `CC(=O)[O-].CC(=O)[O-].CCc1c(CC)c2cc3nc(cnc4cc(OCCOCCOCCOC)c(OCCOCCOCCOC)cc4ncc4nc(cc1[n-]2)C(CCCO)=C4C)C(C)=C3CCCO.O.[Lu+3]` [LuTex, motexafin lutetium]: the “association with HepG2 cells” value under setting [1] is on record as “comparable levels of association”.
`CC(=O)[O-].CC(=O)[O-].CCc1c(CC)c2cc3nc(cnc4cc(OCCOCCOCCOC)c(OCCOCCOCCOC)cc4ncc4nc(cc1[n-]2)C(CCCO)=C4C)C(C)=C3CCCO.O.[Gd+3]` [GdTex, motexafin gadolinium]: the “association with HepG2 cells” value by setting is: under setting [1], “comparable levels of association”; (in the absence of ascorbate) “smaller than corresponding LuTex cell association”.

For the origin of these results see US6919327B2, “Texaphyrin coordination compounds and uses thereof” (Pharmacyclics, Inc., priority 2000, dated 2005).
